What was measured:
[1] = test system: Leishmania donovani MHOM-ET-67/L82 strain; test: Antiprotozoal activity against L. donovani; assay type: cell-based; settings: read-out: IC50 L. donovani
[2] = Cytotoxicity; assay type: cell-based; settings: rat
[3] = test system: schistosomiasis parasite; settings: cited from earlier work

## CCCCCCCCCCCCCCCCOP(=O)([O-])OCC[N+](C)(C)C [Miltefosine]
[1]
  IC50: 340 nM

## COc1cc([C@@H]2c3cc4c(cc3[C@H](O)[C@H]3COC(=O)[C@H]23)OCO4)cc(OC)c1OC [Podophyllotoxin]
[2]
  IC50: 7.2 nM

## O=C(C1CCC(O)CC1)N1CC(=O)N2CCc3ccccc3C2C1 (stereo not drawn) [Compound 2]
[3]
  antischistosomal effectiveness relative to praziquantel (1) (in words): equal to or considerably less effective than the parent drug

Reference: PMC4128413 (Tetrahedron letters, 2014)
